# Reference: patent publication US20250170237A1, “MURAMYL DIPEPTIDES AND PROCESS FOR PREPARATION THEREOF” (priority 2022, published 2025)
# B1: OVA (protein, UniProt P01012 2-386, looked up)
# Ovalbumin: GSIGAASMEFCFDVFKELKVHHANENIFYCPIAIMSALAMVYLGAKDSTRTQINKVVRFDKLPGFGDSIEAQCGTSVNVHSSLRDILNQITKPNDVYSFSLASRLYAEERYPILPEYLQCVKELYRGGLEPINFQTAADQARELINSWVESQTNGIIRNVLQPSSVDSQTAMVLVNAIVFKGLWEKAFKDEDTQAMPFRVTEQESKPVQMMYQIGLFRVASMASEKMKILELPFASGTMSMLVLLPDEVSGLEQLESIINFEKLTEWTSSNVMEERKIKVYLPRMKMEEKYNLTSVLMAMGITDVFSSSANLSGISSAESLKISQAVHAAHAEINEAGREVVGSAEAGVDAASVSEEFRADHPFLFCIKHIATNAVLFFGRCVSP
# Columns and labels:
# OVA antigen = test: IgG titer with OVA antigen (indirect ELISA, immunized mice); format: in vivo, BALB/c mice
# Description: (§1) Adjuvanticity of 15b was evaluated using antigens (OVA, HBsAg, DENV and JEV) in BALB/c mice model—From the immunized mice retro-orbital sampling or retro-orbital blood was collected on 14th and 28th day before sacrifice. Serum was separated by centrifugation at 12,500 rpm for 5 min. Transferred to a clean centrifuge tube and store at −80 until used.
# (§2) The plates were coated with antigen in carbonate buffer. Plates were incubated at 4° C. overnight. They were then washed 3 times with PBS/Tween, and non-specific binding sites were blocked by adding 200 μl of blocking solution. Plates were incubated at room temperature for 1 h. Then 3 times wash is done, diluted standards and samples to desired concentrations in blocking solution were added to the plates. Incubate at 37° C. for 1 h or at 4° C. overnight. Plates were washed 3 times with PBS/Tween. Avidin-Horseradish Peroxidase (Av-HRP) was diluted and added. Incubated at room temperature for 30 min. Plates were washed 3 times with PBS/Tween. OPD Substrate was added and plates were incubated at room temperature (4-30 min) for colour development. The colour reaction was stopped by adding 50 μl of stop solution. Optical density (OD) was read at 492 nm.
# [1] = test system: antigens (OVA, HBsAg, DENV and JEV); test: Serum anti-antigens (OVA, HBsAg, DENV and JEV) IgG titer, overall statements; format: in vivo, BALB/c mice; settings: 15b against Ovalbumin, DEV, 15f against JEV
# Description: as §1, §2
# splenocytes = test: Post JEV immunization In vivo splenocyte proliferation assay; parameters: species or system BALB/c mice
# Description: Splenocytes were seeded into 96-well flat-bottom microtiter plates having 1×10^5 cells/well in […] complete RPMI-1640 medium. Plates were incubated at 37° C. with 5% CO2. After 48 h, […] MTT solution (5 mg/mL) was added to each well and left to incubate for next 4 h. Untransformed MTT ([…]) was removed from each well by pipetting. A total of […] of DMSO was added and the absorbance was evaluated in an ELISA reader at 630 nm on the multimode reader (Infinite 200 Pro, Switzerland) after 15 min
# In vitro Hemolysis assay = settings: even at higher concentrations
# [2] = test system: cytokines IL-1, IL-2, IL-4, IFN, IL-6, IL-10, IL-12, TNF; test: Post JEV immunization In vivo cytokine assay; parameters: species or system BALB/c mice
# Description: ELISA was carried out by Bio Legend capture and detection antibodies. Briefly, 96-well plates were coated with capture antibody dissolved in coating buffer per well incubated overnight at 4° C. Wells were blocked with BSA for 1 h at RT. After blocking, 50 μL/well of serum was added and incubated for 3 h. After washing, Biotinylated secondary antibody was added along with enzyme. Plates were incubated for 1 h at RT. Then plates were washed and TMB substrate solution was added. The reaction was stopped after 30 min with a stopping solution. Absorbance was measured at 450 nm with a plate reader.
# JEV antigen = test: IgG titer with JEV antigen; format: in vivo, BALB/c mice
# Description: as §1, §2
molecule,measurement,setting,value
"C[C@H](NC(=O)[C@@H](C)O[C@H]1[C@H](O)[C@@H](CO)OC(O)[C@@H]1NC(=O)C1CCCO1)C(=O)N[C@H](CCC(=O)O)C(N)=O (stereo partly drawn) [15i, (4R)-5-amino-4-((2S)-2-((2R)-2-(((3R,4R,5S,6R)-2,5-dihydroxy-6-(hydroxymethyl)-3-(tetrahydrofuran-2-carboxamido)tetrahydro-2H-pyran-4-yl)oxy)propanamido)propanamido)-5-oxopentanoic acid]",IgG titer with OVA antigen,OVA antigen; dose 1 μg,4800-50000
same,IgG titer with OVA antigen,OVA antigen; dose 10 μg,102400-560000
same,IgG titer with OVA antigen,OVA antigen; dose 100 μg,119466-484000
"C[C@H](NC(=O)[C@@H](C)O[C@H]1[C@H](O)[C@@H](CO)OC(O)[C@@H]1NC(=O)C1CCC1)C(=O)N[C@H](CCC(=O)O)C(N)=O (stereo partly drawn) [15c, (4R)-5-amino-4-((2S)-2-((2R)-2-(((3R,4R,5S,6R)-3-(cyclobutanecarboxamido)-2,5-dihydroxy-6-(hydroxymethyl)tetrahydro-2H-pyran-4-yl)oxy)propanamido)propanamido)-5-oxopentanoic acid]",IgG titer with OVA antigen,OVA antigen; dose 1 μg,25000-102400
same,IgG titer with OVA antigen,OVA antigen; dose 10 μg,10000-85000
same,IgG titer with OVA antigen,OVA antigen; dose 100 μg,5500-75000
"CCCCCCCCCCCC(=O)OCCCCCCCC(=O)N[C@H]1C(O)O[C@H](CO)[C@@H](O)[C@@H]1O[C@H](C)C(=O)N[C@@H](C)C(=O)N[C@H](CCC(=O)O)C(N)=O (stereo partly drawn) [15g, (4R)-5-amino-4-((2S)-2-((2R)-2-(((3R,4R,5S,6R)-3-(8-(dodecanoyloxy)octanamido)-2,5-dihydroxy-6-(hydroxymethyl)tetrahydro-2H-pyran-4-yl)oxy)propanamido)propanamido)-5-oxopentanoic acid]",IgG titer with OVA antigen,OVA antigen; dose 1 μg,25000-124000
same,IgG titer with OVA antigen,OVA antigen; dose 10 μg,10000-60000
same,IgG titer with OVA antigen,OVA antigen; dose 100 μg,5000-35000
"CCCCCCCC(=O)OCCCCCCCC(=O)N[C@H]1C(O)O[C@H](CO)[C@@H](O)[C@@H]1O[C@H](C)C(=O)N[C@@H](C)C(=O)N[C@H](CCC(=O)O)C(N)=O (stereo partly drawn) [15 h, (4R)-5-amino-4-((2S)-2-((2R)-2-(((3R,4R,5S,6R)-2,5-dihydroxy-6-(hydroxymethyl)-3-(8-(octanoyloxy)octanamido)tetrahydro-2H-pyran-4-yl)oxy)propanamido)propanamido)-5-oxopentanoic acid]",IgG titer with OVA antigen,OVA antigen; dose 1 μg,8750-64000
same,IgG titer with OVA antigen,OVA antigen; dose 10 μg,10000-50000
same,IgG titer with OVA antigen,OVA antigen; dose 100 μg,3750-25000
"C[C@H](NC(=O)[C@@H](C)O[C@H]1[C@H](O)[C@@H](CO)OC(O)[C@@H]1NC(=O)C1CCCC1)C(=O)N[C@H](CCC(=O)O)C(N)=O (stereo partly drawn) [15d, (4R)-5-amino-4-((2S)-2-((2R)-2-(((3R,4R,5S,6R)-3-(cyclopentanecarboxamido)-2,5-dihydroxy-6-(hydroxymethyl)tetrahydro-2H-pyran-4-yl)oxy)propanamido)propanamido)-5-oxopentanoic acid]",IgG titer with OVA antigen,OVA antigen; dose 1 μg,3200-12400
same,IgG titer with OVA antigen,OVA antigen; dose 10 μg,3200-41600
same,IgG titer with OVA antigen,OVA antigen; dose 100 μg,6400-84000
"C[C@H](NC(=O)[C@@H](C)O[C@H]1[C@H](O)[C@@H](CO)OC(O)[C@@H]1NC(=O)C1CCCCC1)C(=O)N[C@H](CCC(=O)O)C(N)=O (stereo partly drawn) [15e, (4R)-5-amino-4-((2S)-2-((2R)-2-(((3R,4R,5S,6R)-3-(cyclohexanecarboxamido)-2,5-dihydroxy-6-(hydroxymethyl)tetrahydro-2H-pyran-4-yl)oxy)propanamido)propanamido)-5-oxopentanoic acid]",IgG titer with OVA antigen,OVA antigen; dose 1 μg,1600-12400
same,IgG titer with OVA antigen,OVA antigen; dose 10 μg,1600-41600
same,IgG titer with OVA antigen,OVA antigen; dose 100 μg,12800-96000
"CCCCCCCCCCCCCC(=O)OCCCCCCCC(=O)N[C@H]1C(O)O[C@H](CO)[C@@H](O)[C@@H]1O[C@H](C)C(=O)N[C@@H](C)C(=O)N[C@H](CCC(=O)O)C(N)=O (stereo partly drawn) [15f, (4R)-5-amino-4-((2S)-2-((2R)-2-(((3R,4R,5S,6R)-2,5-dihydroxy-6-(hydroxymethyl)-3-(8-(tetradecanoyloxy)octanamido)tetrahydro-2H-pyran-4-yl)oxy)propanamido)propanamido)-5-oxopentanoic acid]","antibody titer, conclusion in words",[1],significant antibody titer
same,"Splenocyte proliferation, Con A",splenocytes; dose 5 μG (Table 25),125-141
same,"Splenocyte proliferation, JEV",splenocytes; dose 5 μG (Table 25),139-147
same,"Splenocyte proliferation, LPS",splenocytes; dose 5 μG (Table 25),124-134
same,"Splenocyte proliferation, Con A",splenocytes; dose 20 μG (Table 25),134-142
same,"Splenocyte proliferation, JEV",splenocytes; dose 20 μG (Table 25),149-162
same,"Splenocyte proliferation, LPS",splenocytes; dose 20 μG (Table 25),128-137
same,"Splenocyte proliferation, Con A",splenocytes; dose 50 μG (Table 25),245-264
same,"Splenocyte proliferation, LPS",splenocytes; dose 50 μG (Table 25),184-192
same,"toxicity and hemolysis, conclusion in words",In vitro Hemolysis assay,non-toxic and non-hemolytic
same,TNF,[2]; dose 5 μG (Table 24),624 to 654 pg/mL
same,IL-1,"[2]; dose 5 μG (Tables 22, 24)",745 to 845 pg/mL
same,IL-2,"[2]; dose 5 μG (Tables 22, 24)",41 to 52 pg/mL
same,IL-4,"[2]; dose 5 μG (Tables 22, 24)",134 to 155 pg/mL
same,IL-10,"[2]; dose 5 μG (Tables 22, 24)",243 to 294 pg/mL
same,IL-12,"[2]; dose 5 μG (Tables 22, 24)",124 to 147 pg/mL
same,TNF,[2]; dose 20 μG (Table 24),898 to 942 pg/mL
same,IL-1,"[2]; dose 20 μG (Tables 22, 24)",1059 to 1124 pg/mL
same,IL-2,"[2]; dose 20 μG (Tables 22, 24)",52 to 64 pg/mL
same,IL-4,"[2]; dose 20 μG (Tables 22, 24)",138 to 146 pg/mL
same,IL-10,"[2]; dose 20 μG (Tables 22, 24)",398 to 421 pg/mL
same,IL-12,"[2]; dose 20 μG (Tables 22, 24)",175 to 194 pg/mL
same,TNF,[2]; dose 50 μG (Table 24),1024 to 1124 pg/mL
same,IL-1,"[2]; dose 50 μG (Tables 22, 24)",1487 to 1634 pg/mL
same,IL-2,"[2]; dose 50 μG (Tables 22, 24)",69 to 76 pg/mL
same,IL-4,"[2]; dose 50 μG (Tables 22, 24)",148 to 164 pg/mL
same,IL-10,"[2]; dose 50 μG (Tables 22, 24)",424 to 487 pg/mL
same,IL-12,"[2]; dose 50 μG (Tables 22, 24)",136 to 147 pg/mL
same,IgG titer with OVA antigen,OVA antigen; dose 1 μg,8000-25400
same,IgG titer with OVA antigen,OVA antigen; dose 10 μg,5000-41600
same,IgG titer with OVA antigen,OVA antigen; dose 100 μg,200000-960000
same,IgG titer with JEV antigen,JEV antigen; dose 5 μG (Table 21),80000-160000
same,IgG titer with JEV antigen,JEV antigen; dose 20 μG (Table 21),160000-640000
same,IgG titer with JEV antigen,JEV antigen; dose 50 μG (Table 21),640000-9560000
B1,IgG titer with OVA antigen,OVA antigen; OVA 100 μg alone,6400-12800
